Structures can show the parent of a compound that is named as a salt.
What was measured:
[1] = molecular target: PI3Kα (complex of human p110α and human p85α) (Homo sapiens (Human), UniProt P42336); experiment: PI3Kα kinase assay (HTRF-based PI3K inhibition assay); assay type: biochemical; settings: for inhibition at 0.93 µM: 0.93 μM compound, read-out: PI3K alpha average % Inhibition at 0.93 μM; for IC50: 10 μM ATP, 10 μM PIP2, 20 min at 22° C., read-out: average IC50 in the PI3K alpha biochemical assay;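 on all read-outs here: PIP3 product detected by HTRF, reading resonance energy transfer from Europium-labeled anti-GST antibody to Streptavidin-APC, as displacement of biotinylated PIP3 tracer from the GST-PH domain complex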
Chain of PI3Kα (complex of human p110α and human p85α) (P42336 whole entry, the tested form may be a part): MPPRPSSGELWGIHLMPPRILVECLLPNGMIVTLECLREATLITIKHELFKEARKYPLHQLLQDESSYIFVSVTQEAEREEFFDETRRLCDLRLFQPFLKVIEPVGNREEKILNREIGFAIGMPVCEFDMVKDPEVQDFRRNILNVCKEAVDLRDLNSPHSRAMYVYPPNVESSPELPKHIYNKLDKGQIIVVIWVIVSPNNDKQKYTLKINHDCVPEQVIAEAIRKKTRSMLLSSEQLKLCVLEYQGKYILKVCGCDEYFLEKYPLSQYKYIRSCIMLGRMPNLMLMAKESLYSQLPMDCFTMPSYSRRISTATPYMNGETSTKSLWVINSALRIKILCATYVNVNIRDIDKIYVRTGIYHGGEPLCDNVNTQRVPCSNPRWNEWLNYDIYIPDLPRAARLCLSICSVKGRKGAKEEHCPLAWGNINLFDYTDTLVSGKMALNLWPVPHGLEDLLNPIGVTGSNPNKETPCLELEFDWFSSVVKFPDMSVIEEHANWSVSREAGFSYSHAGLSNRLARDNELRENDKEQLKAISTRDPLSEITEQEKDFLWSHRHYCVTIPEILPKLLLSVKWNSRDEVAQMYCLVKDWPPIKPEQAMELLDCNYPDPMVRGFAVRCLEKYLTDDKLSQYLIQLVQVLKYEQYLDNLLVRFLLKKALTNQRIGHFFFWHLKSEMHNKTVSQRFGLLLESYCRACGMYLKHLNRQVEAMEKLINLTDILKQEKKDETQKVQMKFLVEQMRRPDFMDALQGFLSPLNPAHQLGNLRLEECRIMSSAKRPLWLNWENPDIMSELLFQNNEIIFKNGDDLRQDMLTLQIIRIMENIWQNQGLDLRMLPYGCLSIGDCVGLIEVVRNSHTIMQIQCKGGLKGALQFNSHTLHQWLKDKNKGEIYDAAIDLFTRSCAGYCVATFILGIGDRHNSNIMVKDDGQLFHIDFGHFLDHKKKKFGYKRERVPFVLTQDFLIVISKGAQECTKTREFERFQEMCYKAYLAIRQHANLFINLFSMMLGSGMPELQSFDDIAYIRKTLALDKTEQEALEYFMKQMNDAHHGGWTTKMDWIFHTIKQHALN
Chain of PI3Kα (complex of human p110α and human p85α) (P27986 whole entry partner, the tested form may be a part): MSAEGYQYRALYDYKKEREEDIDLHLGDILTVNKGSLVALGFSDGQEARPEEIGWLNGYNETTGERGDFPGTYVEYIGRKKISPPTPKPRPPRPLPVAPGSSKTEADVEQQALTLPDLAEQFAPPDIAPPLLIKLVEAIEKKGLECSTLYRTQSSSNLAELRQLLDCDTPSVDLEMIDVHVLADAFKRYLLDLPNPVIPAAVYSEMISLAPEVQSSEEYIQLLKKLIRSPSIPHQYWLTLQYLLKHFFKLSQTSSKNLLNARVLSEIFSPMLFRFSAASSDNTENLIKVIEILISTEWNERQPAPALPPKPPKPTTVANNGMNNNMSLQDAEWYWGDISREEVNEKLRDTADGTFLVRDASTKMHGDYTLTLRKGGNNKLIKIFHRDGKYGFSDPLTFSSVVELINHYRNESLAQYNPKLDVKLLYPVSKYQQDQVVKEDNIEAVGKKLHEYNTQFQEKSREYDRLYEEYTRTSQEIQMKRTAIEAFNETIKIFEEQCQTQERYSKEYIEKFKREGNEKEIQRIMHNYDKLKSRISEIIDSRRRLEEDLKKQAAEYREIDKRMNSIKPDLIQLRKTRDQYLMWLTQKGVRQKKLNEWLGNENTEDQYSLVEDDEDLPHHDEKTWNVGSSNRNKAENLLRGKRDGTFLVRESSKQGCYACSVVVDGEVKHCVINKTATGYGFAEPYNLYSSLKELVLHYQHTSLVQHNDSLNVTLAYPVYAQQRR
Excerpt: (§1) Determination of % Inhibition and IC50 Values of Compounds in PI3Kα Kinase Assay
PI3Kα inhibitory activity of compounds of the present invention was quantified employing the HTRF-based PI3K inhibition assay as described below.
(§2) As reagents for the kinase reaction itself and the quantification of the reaction product, the PI3-Kinase HTRF Assay kit from Millipore (#33-017) was used. With this kit the phosphatidylinositol 3,4,5-trisphosphate (PIP3) generated in the kinase reaction is detected by displacement of a biotinylated ligand from an energy transfer complex consisting of a Europium-labeled anti-GST monoclonal antibody, a GST-tagged PH domain, biotinylated PIP3 and Streptavidin-Allophycocyanin (APC).
For the assay 50 nL of a 80-fold concentrated solution of the test compound in DMSO was pipetted into a black low volume 384-well microtiter plate (Greiner Bio-One, Frickenhausen, Germany), 3 μL of a solution of PI3Kα and phosphatidylinositol-4,5-bisphosphate (PIP2, 13.8 μM=> final conc. in 4 μl reaction volume=10 μM) in 1× reaction buffer (exact composition not disclosed by the vendor) were added and the mixture was incubated for 15 min at 22° C. to allow pre-binding of the test compounds to the enzyme before the start of the kinase reaction. The amount of PI3Kα was chosen to have the enzyme reaction in the linear range and depended on the activity of the individual lot, typical concentrations in assay were in the range of 90 ng/mL. Then the kinase reaction was started by the addition of 1 μL of a solution of adenosine triphosphate (ATP, 40 μM=> final conc. in the 4 μL assay volume is 10 μM) in reaction buffer and the resulting mixture was incubated for a reaction time of 20 min at 22° C.
The reaction was stopped by the addition of 1 μL of an stop solution (containing the biotinylated PIP3 used as a tracer), then 1 μL detection mix (containing a Europium-labeled anti-GST monoclonal antibody, a GST-tagged PH domain, and Streptavidin-Allophycocyanin) was added and resulting mixture was incubated 3 h at 22° C. to allow the formation of complexes between the detection reagents and either the PIP3 generated in the kinase reaction, or the biotinylated PIP3 added with the stop solution. Subsequently, the amount of energy transfer complex consisting of a Europium-labeled anti-GST monoclonal antibody, a GST-tagged PH domain, biotinylated PIP3 and Streptavidin-Allophycocyanin (APC) was evaluated by measurement of the resonance energy transfer from the Europium-labeled anti-GST monoclonal antibody to the Streptavidin-Allophycocyanin. Therefore, the fluorescence emissions at 620 nm and 665 nm after excitation at 350 nm were measured using a TR-FRET reader, e.g., a Pherastar (BMG Labtechnologies, Offenburg, Germany) or a Viewlux (Perkin-Elmer). The ratio of the emissions at 665 nm and at 622 nm was taken as the measure for the amount of biotinylated PIP3 bound to the GST-tagged PH domain, which is negatively correlated with the amount of PIP3 generated.

[2] = molecular target: PI3Kβ (complex of human p110β and human p85α) (Homo sapiens (Human), UniProt P42338); experiment: PI3Kβ kinase assay (HTRF-based PI3K inhibition assay); assay type: biochemical; settings: for inhibition at 0.93 µM: 0.93 μM compound, read-out: PI3K beta average % Inhibition at 0.93 μM; for IC50: 10 μM ATP, 10 μM PIP2, 20 min at 22° C., read-out: average IC50 in the PI3K beta biochemical assay; for PI3K beta average IC50/PI3K alpha average IC50: ratio of beta IC50 to alpha IC50;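 on all read-outs here: Kinase-made PIP3 detected by HTRF, displacing biotinylated PIP3 tracer from a complex of Europium anti-GST antibody, GST-fused PH domain and Streptavidin-APC, read as Europium-to-APC energy transfer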
Chain of PI3Kβ (complex of human p110β and human p85α) (P42338 whole entry, the tested form may be a part): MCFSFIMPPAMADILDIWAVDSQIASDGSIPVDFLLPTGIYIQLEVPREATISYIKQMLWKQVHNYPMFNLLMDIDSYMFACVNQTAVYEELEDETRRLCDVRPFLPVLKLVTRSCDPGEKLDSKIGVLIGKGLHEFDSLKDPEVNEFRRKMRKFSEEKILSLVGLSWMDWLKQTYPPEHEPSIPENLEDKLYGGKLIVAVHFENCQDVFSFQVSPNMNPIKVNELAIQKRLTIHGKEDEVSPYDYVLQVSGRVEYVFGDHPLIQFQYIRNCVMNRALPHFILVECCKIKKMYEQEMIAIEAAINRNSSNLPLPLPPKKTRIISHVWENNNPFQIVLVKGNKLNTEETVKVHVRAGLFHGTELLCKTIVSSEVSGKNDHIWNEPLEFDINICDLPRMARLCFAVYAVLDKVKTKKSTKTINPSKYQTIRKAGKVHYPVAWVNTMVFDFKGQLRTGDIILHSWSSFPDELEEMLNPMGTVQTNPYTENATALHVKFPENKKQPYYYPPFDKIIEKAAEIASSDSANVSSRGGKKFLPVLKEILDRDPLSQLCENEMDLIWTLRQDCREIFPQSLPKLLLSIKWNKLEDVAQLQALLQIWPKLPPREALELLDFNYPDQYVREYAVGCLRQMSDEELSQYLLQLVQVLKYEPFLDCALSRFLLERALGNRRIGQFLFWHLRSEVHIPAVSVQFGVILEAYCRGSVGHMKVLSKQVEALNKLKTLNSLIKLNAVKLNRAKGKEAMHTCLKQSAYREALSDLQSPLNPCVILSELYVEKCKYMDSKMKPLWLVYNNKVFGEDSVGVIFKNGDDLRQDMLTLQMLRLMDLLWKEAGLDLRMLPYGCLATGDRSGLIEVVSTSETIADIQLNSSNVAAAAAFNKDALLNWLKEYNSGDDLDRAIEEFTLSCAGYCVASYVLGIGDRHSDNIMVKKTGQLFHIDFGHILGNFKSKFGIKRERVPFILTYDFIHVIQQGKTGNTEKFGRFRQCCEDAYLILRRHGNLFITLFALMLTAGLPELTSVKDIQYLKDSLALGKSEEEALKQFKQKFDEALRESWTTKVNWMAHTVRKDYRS
Chain of PI3Kβ (complex of human p110β and human p85α) (P27986 whole entry partner, the tested form may be a part): as the sequence (P27986 whole entry partner, the tested form may be a part) above
Excerpt: as §1
PI3Kα inhibitory activity of compounds of the present invention was quantified employing the HTRF based PI3K inhibition assay as described below.
as §2
For the assay 50 nL of a 80-fold concentrated solution of the test compound in DMSO was pipetted into a black low volume 384-well microtiter plate (Greiner Bio-One, Frickenhausen, Germany), 3 μl of a solution of PI3Kβ and phosphatidylinositol-4,5-bisphosphate (PIP2, 13.8 μM=> final conc. in 4 μl reaction volume=10 μM) in 1× reaction buffer (exact composition not disclosed by the vendor) were added and the mixture was incubated for 15 min at 22° C. to allow pre-binding of the test compounds to the enzyme before the start of the kinase reaction. The amount of PI3Kβ was chosen to have the enzyme reaction in the linear range and depended on the activity of the individual lot, typical concentrations in assay were in the range of 120 ng/mL. Then the kinase reaction was started by the addition of 1 μL of a solution of adenosine triphosphate (ATP, 40 μM=> final conc. in the 4 μl assay volume is 10 μM) in reaction buffer and the resulting mixture was incubated for a reaction time of 20 min at 22° C.
The reaction was stopped by the addition of 1 μL of an stop solution (containing the biotinylated PIP3 used as a tracer). Then 1 μL detection mix (containing a Europium-labeled anti-GST monoclonal antibody, a GST-tagged PH domain, and Streptavidin-Allophycocyanin) was added and resulting mixture was incubated for 3 h at 22° C. to allow the formation of complexes between the detection reagents and either the PIP3 generated in the kinase reaction, or the biotinylated PIP3 added with the stop solution. Subsequently the amount of energy transfer complex consisting of a Europium-labeled anti-GST monoclonal antibody, a GST-tagged PH domain, biotinylated PIP3 and Streptavidin-Allophycocyanin (APC) was evaluated by measurement of the resonance energy transfer from the Europium-labeled anti-GST monoclonal antibody to the Streptavidin-Allophycocyanin. Therefore, the fluorescence emissions at 620 nm and 665 nm after excitation at 350 nm were measured using a TR-FRET reader, e.g., a Pherastar (BMG Labtechnologies, Offenburg, Germany) or a Viewlux (Perkin-Elmer). The ratio of the emissions at 665 nm and at 622 nm were taken as the measure for the amount of biotinylated PIP3 bound to the GST-tagged PH domain, which is negatively correlated with the amount of PIP3 generated.

Structure (SMILES)	inhibition at 0.93 µM [1]	IC50 [1]	inhibition at 0.93 µM [2]	IC50 [2]	PI3K beta average IC50/PI3K alpha average IC50 [2]
COc1c(OC[C@H](O)CN2CCCCC2)ccc2c1N=C(NC(=O)c1cccnc1C)N1CCN=C21 [Example 19, N-(8-{[(2R)-2-Hydroxy-3-(piperidin-1-yl)propyl]oxy}-7-methoxy-2,3-dihydroimidazo[1,2-c]quinazolin-5-yl)-2-methylpyridine-3-carboxamide]	103%	< 10 nM	91.2%	10 to 50 nM	2.78
COc1c(OC[C@H](O)CN(C(C)C)C(C)C)ccc2c1N=C(NC(=O)c1cccnc1C)N1CCN=C21 [Example 20, N-(8-{[(2R)-3-(dipropan-2-ylamino)-2-hydroxypropyl]oxy}-7-methoxy-2,3-dihydroimidazo[1,2-c]quinazolin-5-yl)-2-methylpyridine-3-carboxamide]	102%	< 10 nM	98.6%	10 to 50 nM	4.20
COc1c(OCC(O)CN2CCOCC2)ccc2c1N=C(NC(=O)c1ccc(N)nc1)N1CCN=C21 (stereo not shown) [Example 21, 6-amino-N-{8-[2-hydroxy-3-(morpholin-4-yl)propoxy]-7-methoxy-2,3-dihydroimidazo[1,2-c]quinazolin-5-yl}pyridine-3-carboxamide]	–	< 10 nM	–	10 to 50 nM	9.37
COc1c(OC[C@H](O)CN2CCOCC2)ccc2c1N=C(NC(=O)c1ccc(N)nc1C)N1CCN=C21 [Example 23, 6-Amino-N-(8-{[(2R)-2-hydroxy-3-(morpholin-4-yl)propyl]oxy}-7-methoxy-2,3-dihydroimidazo[1,2-c]quinazolin-5-yl)-2-methylpyridine-3-carboxamide]	105%	< 10 nM	119%	10 to 50 nM	7.30
COc1c(OC[C@H](O)CN2CCCC2)ccc2c1N=C(NC(=O)c1cncnc1)N1CCN=C21 [Example 24, N-(8-{[(2R)-2-hydroxy-3-(pyrrolidin-1-yl)propyl]oxy}-7-methoxy-2,3-dihydroimidazo[1,2-c]quinazolin-5-yl)pyrimidine-5-carboxamide]	85.1%	10 to 50 nM	94.7%	10 to 50 nM	1.99
COc1c(OCC(O)CN2CCOCC2)ccc2c1N=C(NC(=O)c1cnc(N)nc1)N1CCN=C21 (stereo not shown) [Example 25, 2-Amino-N-{8-[2-hydroxy-3-(morpholin-4-yl)propoxy]-7-methoxy-2,3-dihydroimidazo[1,2-c]quinazolin-5-yl}pyrimidine-5-carboxamide]	92.7%	< 10 nM	93.3%	< 10 nM	8.30
COc1c(OC[C@H](O)CN2C[C@@H](C)O[C@@H](C)C2)ccc2c1N=C(NC(=O)c1cnc(N)nc1)N1CCN=C21 [Example 27, 2-amino-N-[8-({(2R)-3-[(2R,6S)-2,6-dimethylmorpholin-4-yl]-2-hydroxypropyl}oxy)-7-methoxy-2,3-dihydroimidazo[1,2-c]quinazolin-5-yl]pyrimidine-5-carboxamide]	97.9%	< 10 nM	102%	10 to 50 nM	5.52
COc1c(OC[C@H](O)CN2CC3CCC(C2)O3)ccc2c1N=C(NC(=O)c1cnc(N)nc1)N1CCN=C21 [Example 28, 2-Amino-N-(8-{[(2R)-2-hydroxy-3-(8-oxa-3-azabicyclo[3.2.1]oct-3-yl)propyl]oxy}-7-methoxy-2,3-dihydroimidazo[1,2-c]quinazolin-5-yl)pyrimidine-5-carboxamide dihydrochloride]	102%	< 10 nM	102%	< 10 nM	–
COc1c(OC[C@H](O)CN(C)C)ccc2c1N=C(NC(=O)c1cnc(N)nc1)N1CCN=C21 [Example 29, 2-Amino-N-(8-{[(2R)-3-(dimethylamino)-2-hydroxypropyl]oxy}-7-methoxy-2,3-dihydroimidazo[1,2-c]quinazolin-5-yl)pyrimidine-5-carboxamide]	102%	< 10 nM	106%	< 10 nM	6.75
COc1c(OC[C@H](O)CN2CCOCC2)ccc2c1N=C(NC(=O)c1cnc3[nH]cnc3c1)N1CCN=C21 [Example 30, N-(8-{[(2R)-2-Hydroxy-3-(morpholin-4-yl)propyl]oxy}-7-methoxy-2,3-dihydroimidazo[1,2-c]quinazolin-5-yl)-3H-imidazo[4,5-b]pyridine-6-carboxamide]	110%	< 10 nM	108%	10 to 50 nM	8.83
COc1c(OC[C@H](O)CN2CCOCC2)ccc2c1N=C(NC(=O)c1cncs1)N1CCN=C21 [Example 32, N-(8-{[(2R)-2-Hydroxy-3-(morpholin-4-yl)propyl]oxy}-7-methoxy-2,3-dihydroimidazo[1,2-c]quinazolin-5-yl)-1,3-thiazole-5-carboxamide]	96.1%	< 10 nM	95.5%	10 to 50 nM	5.91
COc1c(OC[C@H](O)CN2C[C@@H](C)O[C@@H](C)C2)ccc2c1N=C(NC(=O)c1cncs1)N1CCN=C21 [Example 34, N-[8-({(2R)-3-[(2R,6S)-2,6-dimethylmorpholin-4-yl]-2-hydroxypropyl}oxy)-7-methoxy-2,3-dihydroimidazo[1,2-c]quinazolin-5-yl]-1,3-thiazole-5-carboxamide]	94.2%	< 10 nM	97.1%	10 to 50 nM	7.21
COc1c(OC[C@H](O)CN2CCC2)ccc2c1N=C(NC(=O)c1cncs1)N1CCN=C21 [Example 35, N-(8-{[(2R)-3-(Azetidin-1-yl)-2-hydroxypropyl]oxy}-7-methoxy-2,3-dihydroimidazo[1,2-c]quinazolin-5-yl)-1,3-thiazole-5-carboxamide]	109%	< 10 nM	102%	10 to 50 nM	6.30
COc1c(OC[C@H](O)CN2CCCC2)ccc2c1N=C(NC(=O)c1cncs1)N1CCN=C21 [Example 36, N-(8-{[(2R)-2-Hydroxy-3-(pyrrolidin-1-yl)propyl]oxy}-7-methoxy-2,3-dihydroimidazo[1,2-c]quinazolin-5-yl)-1,3-thiazole-5-carboxamide]	92.4%	< 10 nM	93.9%	10 to 50 nM	3.41
COc1c(OC[C@H](O)CN2CCCCC2)ccc2c1N=C(NC(=O)c1cncs1)N1CCN=C21 [Example 37, N-(8-{[(2R)-2-Hydroxy-3-(piperidin-1-yl)propyl]oxy}-7-methoxy-2,3-dihydroimidazo[1,2-c]quinazolin-5-yl)-1,3-thiazole-5-carboxamide]	103%	< 10 nM	93.7%	10 to 50 nM	2.98
COc1c(OC[C@H](O)CN2CCCC2)ccc2c1N=C(NC(=O)c1scnc1C)N1CCN=C21 [Example 38, N-(8-{[(2R)-2-Hydroxy-3-(pyrrolidin-1-yl)propyl]oxy}-7-methoxy-2,3-dihydroimidazo[1,2-c]quinazolin-5-yl)-4-methyl-1,3-thiazole-5-carboxamide]	92.8%	< 10 nM	95.1%	< 10 nM	5.64
COc1c(OC[C@H](O)CN2CCOCC2)ccc2c1N=C(NC(=O)c1sc(N)nc1C)N1CCN=C21 [Example 39, 2-Amino-N-(8-{[(2R)-2-hydroxy-3-(morpholin-4-yl)propyl]oxy}-7-methoxy-2,3-dihydroimidazo[1,2-c]quinazolin-5-yl)-4-methyl-1,3-thiazole-5-carboxamide]	110%	< 10 nM	122%	< 10 nM	5.32
COc1c(OC[C@H](O)CN2CCCC2)ccc2c1N=C(NC(=O)c1cnco1)N1CCN=C21 [Example 40, N-(8-{[(2R)-2-Hydroxy-3-(pyrrolidin-1-yl)propyl]oxy}-7-methoxy-2,3-dihydroimidazo[1,2-c]quinazolin-5-yl)-1,3-oxazole-5-carboxamide]	88%	> 50 nM	72.7%	> 50 nM	–
COc1c(OC[C@H](O)CN(C(C)C)C(C)C)ccc2c1N=C(NC(=O)c1cncs1)N1CCN=C21 [Example 41, N-(8-{[(2R)-3-(dipropan-2-ylamino)-2-hydroxypropyl]oxy}-7-methoxy-2,3-dihydroimidazo[1,2-c]quinazolin-5-yl)-1,3-thiazole-5-carboxamide]	95.7%	< 10 nM	99.3%	10 to 50 nM	5.83

— patent US8895549B2, “Aminoalcohol substituted 2,3-dihydroimidazo[1,2-c]quinazoline derivatives useful for treating hyper-proliferative disorders and diseases associated with angiogenesis” (Bayer Intellectual Property GmbH, priority 2010, dated 2014)
